# Results as given in patent publication US20250034139A1, “AMINE COMPOUNDS HAVING ANTI-INFLAMMATORY, ANTIFUNGAL, ANTIPARASITIC, AND ANTICANCER ACTIVITY” (PHARMA CINQ, LLC, priority 2013, published 2025).
# Read-outs that look alike come from different tables or passages of the source.
# What was measured:
# Rhizopus strains = test: Example N: MIC and MFC (CLSI) against Rhizopus; assay type: cell-based, Rhizopus spp.; conditions: for MIC50 / MIC: Rhizopus; for MIC: read-out: MIC 100%; for MFC: range over Rhizopus strains, in 48 hr
# Description: (§1) The objective of this study was to determine the antifungal activity of eight experimental compounds against a representative panel of fungal isolates, including Candida albicans, C. glabrata, Cryptococcus neoformans, Trichophyton rubrum, Aspergillus fumigatus, and Rhizopus spp. Antifungal activity was measured by minimum inhibitory concentration (MIC) and minimum fungicidal concentration (MFC).
# (§2) Three recent clinical strains of each species, taken from the culture collection at the Center for Medical Mycology, Case Western University, were tested.
# (§3) Compounds in powder form were dissolved in DMSO. Serial dilutions of each compound were then prepared in RPMI-1640 in a range of […].
# (§4) MIC testing was performed according to the CLSI M27-A3 and M38-A2 standards for the susceptibility testing of yeasts and filamentous fungi, respectively (1, 2). Test isolates were subcultured from frozen slants onto potato dextrose agar plates (Trichophyton rubrum was subcultured onto oatmeal plates for conidia production) and checked for purity. Inocula were then prepared in RPMI-1640 (YNB for Cryptococcus) to a concentration of 0.5-2.5×10^3 colony-forming units (CFU)/ml or 0.4-5×10^4 conidia/ml for yeast and filamentous fungi, respectively.
# (§5) MFC determinations were performed according to the modifications previously described by Canton et al. and Ghannoum and Isham. (3, 4) Specifically, the total contents of each clear well from the MIC assay were subcultured onto potato dextrose agar. To avoid antifungal carryover, the aliquots were allowed to soak into the agar and then were streaked for isolation once dry, thus removing the cells from the drug source.
# [1] = system: Aspergillus fumigatus strains; test: Example N: MIC and MFC (CLSI) against Aspergillus fumigatus; assay type: cell-based; conditions: for MIC50 / MIC: Aspergillus fumigatus; for MIC: read-out: MIC 100%; for MFC: range over Aspergillus fumigatus strains, in 48 hr
# Description: as §1, §2, §3, §4, §5
# [2] = system: Cryptococcus neoformans strains; test: Example N: MIC and MFC (CLSI) against Cryptococcus neoformans; assay type: cell-based; set-up: MIC at 50% inhibition: unit not given here; conditions: for cidal activity (MFC within 4 dilutions of the MIC), in words: 3 isolates; for MIC / MFC: Cryptococcus neoformans, three clinical strains; for MIC: read-out: MIC 100%, Range, incubated for 72 hrs
# Description: as §1, §2, §3, §4, §5
# Trichophyton rubrum = test: Example J: Trichophyton rubrum growth inhibition, scoring by eye; assay type: cell-based; conditions: Trichophyton rubrum, 144 h; 6 days at 30° C., tested 6 to 40 μM; read-out: MIC, μM (maximum inhibition concentration, scoring by eye)
# In short: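 Filtered T. rubrum suspension from PDA plates (grown 4 days, 30 °C) treated with diluted compounds in triplicate, incubated 6 days at 30 °C. Plates imaged; MIC scored by eye.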
# Candida glabrata strains = test: Example N: MIC and MFC (CLSI) against Candida glabrata; assay type: cell-based; conditions: Nakaseomyces glabratus; for MIC: read-out: MIC 100%; for MFC: range over Candida glabrata strains, in 48 hr
# Description: as §1, §2, §3, §4, §5
# THP-1 cells = test: Example C: compound screen, viable THP-1 cell count after 5 hours +/- LPS; assay type: cell-based, Human
# From the text: Background: THP-1 is a human acute myeloid leukemia (AML) cell line that can be induced into a macrophage-like cell with vitamin-D3 (vit-D3). In the macrophage, LPS (lipopolysaccharide; endotoxin) stimulation of toll-like receptor 4 (TLR-4) leads to NF-κB activation and secretion of inflammatory cytokines but also the priming of programmed death pathways through RIP and Caspase 8. The balance of this complex regulatory network is dependent on highly specific kinases, enzymes that require ATP. Disruption of either cytosolic pH or ATP availability/energy level uncouples this control network and the can macrophage shift away from production of inflammatory cytokines towards a programmed death event, which has the net effect of limiting inflammatory damage.
# [3] = system: PC-3 prostate cancer cells; test: Example T: sensitisation of PC-3 cells to doxorubicin, oxaliplatin, paclitaxel or vincristine, Wst1; assay type: cell-based, human; conditions: PC-3 cells, 72 hours; for viability at 0.4 µM: Homo sapiens, compound 0.4 μM alone, Wst1, vehicle = 100, read-out: No Chemo: percent cell survival; for Doxorubicin 3.5 μM: percent cell survival: compound 0.4 μM + doxorubicin 3.5 μM; for Doxorubicin 3.5 μM: percent cell survival / Oxaliplatin 100 μM: percent cell survival / Paclitaxel 50 μM: percent cell survival / Vincristine 100 nM: percent cell survival: chemotherapy agent alone normalized to 100%; for Oxaliplatin 100 μM: percent cell survival: compound 0.4 μM + oxaliplatin 100 μM; for Paclitaxel 50 μM: percent cell survival: compound 0.4 μM + paclitaxel 50 μM; for Vincristine 100 nM: percent cell survival: compound 0.4 μM + vincristine 100 nM
# [4] = system: PC3 human prostate cancer cells; test: Example S: in vitro anticancer screen, PC-3 cells, Wst1; assay type: cell-based; conditions: Homo sapiens, PC-3; 0.4 μM, approximately 20 hours, Wst1; read-out: PC-3, percent of cancer cell survival relative to vehicle treated cells
# In short: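 PC-3 cells, 2×10^4 cells/well, exposed ~20 h to vehicle or compound at 0.4, 0.5 or 2.5 μM as specified per compound. Wst1 dye added for 2 h; absorbance 450 nm (reference 630 nm), triplicates. Values are percent cell survival versus vehicle-treated cells.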
# [5] = system: 4T1 murine breast cancer cells; test: Example S: in vitro anticancer screen, 4T1 cells, Wst1; assay type: cell-based, mouse; conditions: Mus musculus, 4T1, 18 h, 18 hr, Wst1; for viability at 1 µM: read-out: 4T1 1 μM, percent of cancer cell survival relative to vehicle treated cells; for viability at 5 µM: read-out: 4T1 5 μM, percent of cancer cell survival relative to vehicle treated cells
# In short: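 4T1 cells seeded at 1×10^4/well were exposed to compound at 1 μM or 5 μM for 18 hr after plating. Wst1 tetrazolium dye was then added for about 2 hr and absorbance read at 450 nm (reference 630 nm). Values are percent survival relative to vehicle-treated cells.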
MIC50 (Rhizopus strains; 24 h) [µg/mL],MIC (Rhizopus strains; 24 h) [µg/mL],MIC50 (Rhizopus strains; 48 h) [µg/mL],MIC (Rhizopus strains; 48 h) [µg/mL],MIC50 ([1]; 24 h) [µg/mL],MIC ([1]; 24 h) [µg/mL],MIC50 ([1]; 48 h) [µg/mL],MIC ([1]; 48 h) [µg/mL],MIC at 50% inhibition [2],"cidal activity (MFC within 4 dilutions of the MIC), in words [2]",MIC [2] [µg/mL],MIC (Trichophyton rubrum) [µM],MIC50 (Candida glabrata strains; 24 h) [µg/mL],MIC (Candida glabrata strains; 24 h) [µg/mL],MIC50 (Candida glabrata strains; 48 h) [µg/mL],MIC (Candida glabrata strains; 48 h) [µg/mL],SMILES,MFC (Rhizopus strains) [µg/mL],MFC [1] [µg/mL],MFC [2] [µg/mL],MFC (Candida glabrata strains) [µg/mL],further results
0.25 to 0.5,2,2,2,< 0.12,0.25 to 0.5,0.25 to 1,0.25 to 4,0.004-2,cidal against all 3 neoformans isolates,0.25 to 2,6,2,4 to 8,4 to 8,4 to 8,"CCCCCCCCCCNc1ncnc2ccccc12 [Compound AH, N-(Decyl)quinazolin-4-amine]",64,> 64,1 to 2,8 to 64,"MIC at 100% inhibition (Rhizopus strains; 24 hrs): 2 µg/mL; MIC at 50% inhibition (Rhizopus strains; 48 hr): 2 µg/mL; MIC at 100% inhibition (Rhizopus strains; 48 hr): 2 µg/mL; Reduction in viable THP-1 cell count (percent change) from 0 hours, Mean ± SE (THP-1 cells; Compound (0.1 μM), No LPS): −9.66 ± 1.34%; Reduction in viable THP-1 cell count (percent change) from 0 hours, Mean ± SE (THP-1 cells; Compound (0.1 μM), Plus LPS): −26.55 ± 0.95%; Reduction in viable THP-1 cell count (percent change) from 0 hours, Mean ± SE (THP-1 cells; Compound (1.0 μM), No LPS): −7.87 ± 0.98%; Reduction in viable THP-1 cell count (percent change) from 0 hours, Mean ± SE (THP-1 cells; Compound (1.0 μM), Plus LPS): −35.51 ± 3.90%; ability to inactivate pro-inflammatory THP-1 cells, in words (relative to benchmark AC) (THP-1 cells; LPS-treated THP-1 cells): higher activity than the active benchmark compound AC"
4,4,4 to 8,8,2,2,2 to 4,4,,,2,12,2,2,2 to 4,4,"CCCCCCOCCCCCCCCCCNc1ccnc2ccccc12 [Compound AL, N-[10-(Hexyloxy)decyl]quinolin-4-amine]",,4 to 32,2 to 4,4,"viability at 0.4 µM [3]: 61.6%; Doxorubicin 3.5 μM: percent cell survival [3]: 21.9%; Oxaliplatin 100 μM: percent cell survival [3]: 21.9%; Paclitaxel 50 μM: percent cell survival [3]: 51.8%; Vincristine 100 nM: percent cell survival [3]: 28.1%; cidal activity (MFC within 4 dilutions of the MIC), in words ([1]; 3 strains): cidal against one of the A. fumigatus strains (MRL 28397); viability at 0.4 µM [4]: 61.6%; viability at 1 µM [5]: 16.6%; viability at 5 µM [5]: 18.3%"
0.5 to 1,1 to 2,1,1 to 2,0.12 to 0.25,0.5 to 1,1 to 4,4 to 8,0.12-2,cidal against all 3 neoformans isolates,0.5 to 4,6,2,8,8,8,"CCCCCCOCCCCCCCCNc1ccnc2c(Cl)cccc12 [Compound AX, 8-Chloro-N-[8-(hexyloxy)octyl]quinolin-4-amine]",> 64,> 64,4 to 8,8 to 64,viability at 0.4 µM [3]: 31.2%; Doxorubicin 3.5 μM: percent cell survival [3]: 57.9%; Oxaliplatin 100 μM: percent cell survival [3]: 49.5%; Paclitaxel 50 μM: percent cell survival [3]: 26.7%; Vincristine 100 nM: percent cell survival [3]: 31.5%; viability at 0.4 µM [4]: 31.2%; viability at 1 µM [5]: 24.3%; viability at 5 µM [5]: 18%
